Here are results for one compound from patent US8680076B2, “Methods of treatment, improvement and prevention using haloaryl substituted aminopurines” (Signal Pharmaceuticals, LLC, priority 2010, dated 2014).

“Also recorded” adds a separate entry of the source.

Assay [1] has as its system Tsk-1 mice. Nature of the assay: Tight skin-1 (Tsk-1) mouse model of systemic sclerosis. It counts as in vivo. To be noted: for decrease of number of myofibroblasts / reduction of hypodermal thickening: 6 weeks; for reduction of hypodermal thickening: compared to untreated mice. As for the experimental part: The antifibrotic effects of the JNK inhibitor Compound JNKi-1 were tested in a murine tight skin-1 (Tsk-1) model of systemic sclerosis. In this model, a dominant mutation in the fibrillin 1 gene (Fbn1^Tsk+/−) leads to a systemic sclerosis-like disease with inflammatory infiltrates and massive fibrosis of the skin (Akhmetshina A, Venalis P, Dees C, Busch N, Zwerina J, Schett G, et al., Treatment with imatinib prevents fibrosis in different preclinical models of systemic sclerosis and induces regression of established fibrosis, Arthritis Rheum. 2009; 60(1):219-24).
Male and female TSK-1 mice were used. Mice were fed a standard diet with water ad libitum. The room temperature was kept constant at 22° C. with a humidity of 60%.
Compound JNKi-1 was dissolved in 0.5% carboxymethylcellulose (CMC)/0.25% Tween 80 in water. As vehicle control a solution of 0.5% CMC/0.25% Tween 80 in water was used. Imatinib mesylate was dissolved in 0.9% NaCl at a concentration of 50 mg/kg/day in a total volume of 100 μL.
Groups of Tsk-1 mice (n=4/sex/group) were assigned to one of five treatment groups: • Untreated wildtype (Fbn1^Tsk−/−) group received 0.5% CMC/0.25% Tween 80 in water orally (PO) twice daily (BID). • Untreated Fbn1Tsk+/− mice received 0.5% CMC/0.25% Tween 80 in water orally BID. • Compound JNKi-1-treated Fbn1^Tsk+/− received 50 mg/kg orally BID. • Compound JNKi-1-treated Fbn1^Tsk+/− received 150 mg/kg orally BID. • Imatinib mesylate-treated Fbn1^Tsk+/− group received 50 mg/kg/day administered intraperitoneally (IP).
Treatments with Compound JNKi-1 and control compound were started at Week 4. After 6 weeks of treatment, mice were sacrificed, and the antifibrotic effects from each treatment were analyzed.
Antifibrotic effects were determined by measuring the dermal thickness and quantifying the numbers of myofibroblasts in the lesional skin. Dermal thickness was determined by measuring the distance from the epidermal/dermal border to the dermal/subdermal border in H & E-stained sections at four different sites. The number of myofibroblasts was quantified by staining for alpha smooth muscle actin (α-SMA) in paraffin-embedded sections. Data are expressed as mean±standard error of the mean (SEM). SPSS17.0 software and the Mann-Whitney-U-test were used for statistical analyses. A p-value of less than 0.05 was considered statistically significant.

Assay [2] has as its system CD-IGS rats. Nature of the assay: Rat model of excisional wound healing. It counts as in vivo. The protocol: Male CD-IGS rats (Strain code 001; n=32-52 per experiment) were obtained from Charles River Laboratories at a body weight of 175-195 g. Rats were housed in regular shoebox cages and allowed to become acclimated for a minimum of 1 week. Rats were fed Harlan Teklad (No. 7001) 4% mouse/rat diet and water ad libitum and were maintained on a 12-hour light/dark cycle.
Suspensions of Compound JNKi-1 were prepared in aqueous 0.5% CMC and 0.25% Tween-80. The formulations were homogenized using a TEFLON® pestle and mortar (Potter-Elvehjem tissue grinder). Vehicle (aqueous solution of 0.5% carboxymethylcellulose, and 0.25% Tween-80) and test article compounds were dosed at a volume of 5 mL/kg. Groups of rats (n=4-8/group) were dosed orally with vehicle, Dexamethasone (0.5 mg/kg) or Compound JNKi-1 (10 mg/kg, 30 mg/kg or 60 mg/kg) daily throughout the study starting 4 days prior to the procedure and continuing for up to […]. Compound JNKi-1 treated groups and the respective vehicle control group were dosed twice daily (bid) with an 8 hr separation between the doses. Dexamethasone treated animals and the respective vehicle control group were dosed once daily (qd) for the duration of the study.
Rats were anesthetized by inhaled isoflurane and the dorsal area was shaved and swabbed with 70% alcohol. Two points were marked 5.5 and 8.5 cm from the base of the skull along the midline. Four further points were marked 1 cm at either side of the midline, two at each of the marked points. These delineated the centers of four excisional wounds. The biopsy punch (6 mm diameter) was aligned vertically over the center of a mark and the epidermis, dermis and panniculus carnosus pierced by applying pressure and twisting at the same time. The skin plug was then removed. This was repeated for the remaining wounds (FIG. 15). The animal was then allowed to recover. All animals were housed singly during the experiment. Rats were monitored twice a day for the first 24 hours following the procedure and then daily until the end of the study. Body weights were recorded two or three times per week. Animals were sacrificed via CO2 asphyxiation at various time-points (day 1, 5, 10 or 14) following wounding.
Each wound size was measured using an electronic digital caliper and the percent of wound remaining open was calculated relative to the initial wound size recorded on day 0 (day of wounding procedure). Four values were averaged for each animal (four wounds on each rat). Measurements were taken at different time-points throughout the study.
Wounds and 2 mm of surrounding tissue were excised using an 8 mm biopsy punch. Wounds were harvested on days 1, 5, 10 and 14 following the procedure. Tissues were fixed in neutral buffered formalin for 3 h then transferred to 100% ethanol. Tissues were paraffin-embedded and four μm cross sections were cut and mounted on poly-lysine slides and stored in slide boxes at room temperature.
One slide for each specimen was stained for H&E to assess granulation-tissue formation and re-epithelialization of the wound gap.
Samples collected on day 10 and 14 were stained with Trichrome Stain (Masson) Kit (Sigma, HT15) to evaluate collagen deposition and remodeling.
Tissue sections were deparaffinized and hydrated to deionized (DI) water. Sections were incubated in preheated Bouin' Solution (Sigma, HT10-132) at 56° C. overnight and then thoroughly rinsed in tap water. Sections were stained in Weigert's Iron Hematoxylin solution (Sigma, HT10-79) for 15 min, washed, and counterstained with Biebrich Scarlet Acid Fuchsin solution. After washing, sections were incubated with Phosphotungstic-Phosphomolybdic acid solution for 15 min and then stained with Aniline Blue solution. Sections were dehydrated and cleared in xylene.
Wound healing was evaluated on day 10 and day 14 after the procedure. H&E sections were scored for re-epithelialization using the following criteria: […]

Where [3] appears, read: 60 mg/kg bid, Studies A and B combined.

Turning to `O[C@H]1CC[C@H](Nc2ncc3nc(Nc4c(F)cc(F)cc4F)n([C@H]4CCOC4)c3n2)CC1` [JNKi-1, 4-((9-((3S)-tetrahydro-3-furanyl)-8-((2,4,6-trifluorophenyl)amino)-9H-purin-2-yl)amino)-trans-cyclohexanol], in assay [1] (50 mg/kg orally BID), the “decrease of number of myofibroblasts” value is on record as 68%±28% and the “reduction of hypodermal thickening” value is on record as 67%±5%. In assay [1] (150 mg/kg orally BID), the “decrease of number of myofibroblasts” value is reported as 99%±9% and the “reduction of hypodermal thickening” value is reported as 85%±7%. Moreover, in assay [1] (50 and 150 mg/kg orally BID), the “hypodermal thickening / myofibroblast counts (in words)” value is given as “dose dependently reduced; also recorded: more pronounced; also recorded: dose-dependently reduce”. The “wound healing (wound size) in words” value in assay [2] (60 mg/kg b.i.d) is recorded as “delay in wound healing was observed”. For the same compound, the “delay in wound healing” value in assay [2] (60 mg/kg b.i.d, n=3 studies) is 27%. Also, in assay [2] (60 mg/kg bid), the “healing at day 14” value is given as “fully healed”. In assay [2] (setting [3]), the “rats completely healed by day 10 (healing score)” value is 5 out of 14; the “rats with both incomplete re-epithelialization and collagen remodeling at day 10” value worked out at 3 rats; the “rats with incomplete new epidermis at day 10” value is reported as “two”; the “rats with only partial collagen remodeling at day 10” value was found to be 4 rats. Besides, the “neutrophils recruited into the wounds (MPO IHC) versus controls” value in assay [2] (60 mg/kg, day 1 post wounding) is reported as “did not affect inflammatory cell infiltration; also recorded: comparable”. Besides, the “myofibroblast migration into the wound gap (α-SMA IHC)” value in assay [2] (60 mg/kg, day 5 post wounding) is recorded as “reduced myofibroblast migration; also recorded: few myofibroblasts migrating at the wound edges”. Moreover, the “wound size versus vehicle” value in assay [2] (30 or 10 mg/kg bid) is on record as “no difference”. In addition, the “healing score versus vehicle control, day 10” value in assay [2] (Study C, 10 mg/kg) was “No significant effect”. Besides, the “rats with both incomplete re-epithelialization and collagen remodeling” value in assay [2] (Study C, 30 mg/kg, day 10) was 5 out of 8. The “rats completely healed by day 10” value in assay [2] (Study C, 60 mg/kg) is “None”. Moreover, in assay [2] (Study C, 60 and 30 mg/kg), the “healing score versus vehicle control, day 10” value is given as “significant delay in healing”. Moreover, the “time of complete skin repair post wounding” value in assay [2] (all treated groups) is not above 14 days.
